# Assay results reported in EP0007019A1, “5-Phenyl-pyrazole derivatives and their salts, processes for their preparation and medicines containing them” (Kali-Chemie Pharma GmbH, priority 1978, dated 1980).
# Read-outs that look alike come from different tables or passages of the source.
# How the values were obtained:
# Assay type in all cases: in vivo
# [1] = tested on: NMRI-Maus; test: Acute 7-day toxicity after a single administration (LD50, probit analysis); conditions: for Toxizität: statement in words, test not specified
# Source text: (§1) Die akute 7-Tage-Toxizität wurde nach einmaliger Applikation an der weißen, nüchternen NMRI-Maus bestimmt.
# [2] = tested on: Versuchstieren; test: PCA test (passive cutaneous anaphylaxis reaction), peroral
# Source text: Die neuen Verbindungen eignen sich insbesondere aufgrund ihrer oralen antianaphylaktischen Wirksamkeit zur Behandlung von allergischen Reaktionen.
# [3] = tested on: Sprague-Dawley-Ratten mit diätetischer Hyperlipidämie; test: Lipid-lowering effect in rats with dietary hyperlipidaemia, 4 weeks p.o., compared with Clofibrat; liver weight; conditions: for Serum Gesamt-Cholesterin / Serum Triglyceride / Lebergewicht: 4 Wochen; for Serum Gesamt-Cholesterin: 20 animals per group, Kontrolle 15,2 ± 2,4; for Serum Triglyceride: Kontrolle 1,04 ± 0,34; for Lebergewicht: Kontrolle 7,3 ± 0,7
# Procedure: Die Testsubstanz wurde über einen Zeitraum von 4 Wochen in Dosierungen von 100 und 200 mg/kg Körpergewicht p.o. täglich per Magensonde in 10 ml einer 1%-igen Traganth-Lösung verabreicht. Clofibrat wurde entsprechend in Dosierungen von 100 und 200 mg/kg gegeben. Die Kontrolltiere erhielten 10 ml der Trägerflüssigkeit Traganth/kg Körpergewicht per Magensonde.
# Jede Gruppe bestand aus 20 Tieren; das Gewicht der Leber wurde festgestellt und verglichen.
# Die Blutentnahme erfolgte im Ätherrausch aus dem retrobulbären Venenplexus.
# Ausgeführt wurden Varianzanalyse und Student-t-Test. Als Signifikanzgrenze diente p≤0,01.
# [4] = Acute 7-day toxicity after a single administration (LD50, probit analysis); conditions: in vivo, single administration, fasted NMRI mouse, 7 days
# Source text: as §1
# [5] = tested on: unbehandelten Ratte; test: Determination of triglyceride lowering in the untreated rat over 4 days; conditions: po, 96 h, 200 mg/kg per Magensonde, 4 Tage, serum triglycerides, percent versus control, 10 animals per group, read-out: Triglyceridsenkung in %
# Procedure: Die Verbindungen wurden auf triglyceridsenkende Eigenschaften an der unbehandelten Ratte über einen Zeitraum von 4 Tagen untersucht. Die Substanzen wurden in der Dosierung von 200 mg/kg per Magensonde in 5 ml 1%-iger Traganth-Lösung appliziert. Die Blutentnahme erfolgte im Ätherrausch aus dem retrobulbären Venenplexus. Die Serumtriglyceride wurden nach Eggstein und Kreutz (Klin. Wschr. 44, 262 (1966)) bestimmt. Jede Gruppe bestand aus 10 Tieren. Die statistische Prüfung erfolgte nach dem Student-t-Test. Als Signifikanzgrenze diente p ≤0,01.
# Die Triglyceridsenkung durch die untersuchten Substanzen in Prozent gegenüber der Kontrolle ist der Tabelle 2 zu entnehmen.
# [6] = 100 mg/kg p.o. täglich, mean ± spread
molecule,measurement,setting,value
"1,5-Diphenyl-3-(2-äthoxycarbonylpropyl-2-oxy)-pyrazol [Beispiel 1]",LD50 i.p.,"[1]; i.p., single administration, fasted NMRI mouse, 7 days",684 mg/kg
same,LD50 p.o.,"[1]; p.o., single administration, fasted NMRI mouse, 7 days",>1470 mg/kg
CC(C)(Oc1cc(-c2ccc(Cl)cc2)[nH]n1)C(=O)O [5-(4-Chlorphenyl)-3-(2-hydroxycarbonylpropyl-2-oxy)-pyrazol],perorale antianaphylaktische Wirksamkeit,[2],ausgeprägte perorale antianaphylaktische Wirksamkeit
same,Toxizität,[1],geringer Toxizität
CC(C)(Oc1cc(-c2ccccc2)[nH]n1)C(=O)O [5-Phenyl-3-(2-hydroxycarbonylpropyl-2-oxy)-pyrazol],perorale antianaphylaktische Wirksamkeit,[2],ausgeprägte perorale antianaphylaktische Wirksamkeit
same,Toxizität,[1],geringer Toxizität
"CCOC(=O)C(C)(C)Oc1ccc(Cl)cc1 [Clofibrat, a-(p-Chlorphenoxy)-a-methyl-propionsäureäthylester, reference compound]",Serum Gesamt-Cholesterin,[3]; [6],"6,9 ± 2,1 mmol/l"
same,Serum Triglyceride,[3]; 100 mg/kg p.o. täglich,"0,90 ± 0,16 mmol/l"
same,Lebergewicht,[3]; 100 mg/kg p.o. täglich,"8,2 ± 0,9 g/100 g"
same,Serum Gesamt-Cholesterin,[3]; 200 mg/kg p.o. täglich,"5,9 ± 1,7 mmol/l"
same,Serum Triglyceride,[3]; 200 mg/kg p.o. täglich,"0,86 ± 0,66 mmol/l"
same,Lebergewicht,[3]; 200 mg/kg p.o. täglich,"8,2 ± 0,7 g/100 g"
same,LD50 at 168 h,"[4]; ip, read-out: LD50 i.p.",566 mg/kg
same,LD50 at 168 h,"[4]; po, read-out: LD50 p.o.",> 1470 mg/kg
"CC(C)(Oc1cc(-c2ccccc2)n(-c2ccccc2)n1)C(N)=O [Substanz A, 1,5-Diphenyl-3-(2-aminocarbonylpropyl-2-oxy)-pyrazol]",Serum Gesamt-Cholesterin,[3]; [6],"6,8 ± 2,4 mmol/l"
same,Serum Triglyceride,[3]; 100 mg/kg p.o. täglich,"0,83 ± 0,20 mmol/l"
same,Lebergewicht,[3]; 100 mg/kg p.o. täglich,"7,2 ± 0,6 g/100 g"
same,Serum Gesamt-Cholesterin,[3]; 200 mg/kg p.o. täglich,"5,5 ± 1,4 mmol/l"
same,Serum Triglyceride,[3]; 200 mg/kg p.o. täglich,"0,70 ± 0,16 mmol/l"
same,Lebergewicht,[3]; 200 mg/kg p.o. täglich,"7,4 ± 0,7 g/100 g"
same,"Veränderungen der Leber (Zunahme des Lebergewichtes, Leberzellvergrößerung)","[3]; 4 Wochen p.o., 100 and 200 mg/kg",keinerlei Veränderungen der Leber
same,LD50 at 168 h,"[4]; ip, read-out: LD50 i.p.",571 mg/kg
same,LD50 at 168 h,"[4]; po, read-out: LD50 p.o.",> 1470 mg/kg
"CC(C)(Oc1cc(-c2ccccc2)[nH]n1)C(N)=O [Substanz Nr. 1, 5-Phenyl-3-(2-aminocarbonylpropyl-2-oxy)-pyrazol]",inhibition in vivo at 200 mg/kg,[5],15%
"CC(C)(Oc1cc(-c2ccc(Cl)cc2)n(-c2ccccc2)n1)C(N)=O [Substanz Nr. 2, 1-Phenyl-5-(4-chlorphenyl)-3-(2-aminocarbonyl-propyl-2-oxy)-pyrazol]",LD50 at 168 h,"[4]; ip, read-out: LD50 i.p.",> 100 mg/kg
same,LD50 at 168 h,"[4]; po, read-out: LD50 p.o.",> 1470 mg/kg
same,inhibition in vivo at 200 mg/kg,[5],20%
"CC(C)(Oc1cc(-c2cccc(Cl)c2)n(-c2ccccc2)n1)C(N)=O [Substanz Nr. 3, 1-Phenyl-5-(3-chlorphenyl)-3-(2-aminocarbonyl-propyl-2-oxy)-pyrazol]",inhibition in vivo at 200 mg/kg,[5],30%
"CC(C)(Oc1cc(-c2ccc(Cl)cc2)[nH]n1)C(N)=O [Substanz Nr. 4, 5-(4-Chlorphenyl)-3-(2-aminocarbonylpropyl-2-oxy)-pyrazol]",inhibition in vivo at 200 mg/kg,[5],15%
"CC(C)(Oc1cc(-c2ccc(Cl)cc2)n(Cc2ccccc2)n1)C(N)=O [Substanz Nr. 5, 1-Benzyl-5-(4-chlorphenyl)-3-(2-aminocarbonyl-propyl-2-oxy)-pyrazol]",inhibition in vivo at 200 mg/kg,[5],15%
"CCOC(=O)C(C)(C)Oc1cc(-c2ccc(Cl)cc2)n(-c2ccccc2)n1 [Substanz Nr. 6, 1-Phenyl-5-(4-chlorphenyl)-3-(2-äthoxycarbonyl-propyl-2-oxy)-pyrazol]",inhibition in vivo at 200 mg/kg,[5],20%
"CCOC(=O)C(C)(C)Oc1cc(-c2ccccc2)[nH]n1 [Substanz Nr. 7, 5-Phenyl-3-(2-äthoxycarbonylpropyl-2-oxy)-pyrazol]",inhibition in vivo at 200 mg/kg,[5],25%
"CC(C)(Oc1cc(-c2ccccc2)n(-c2ccccc2)n1)C(=O)O [Substanz Nr. 8, 1,5-Diphenyl-3-(2-hydroxycarbonylpropyl-2-oxy)-pyrazol]",inhibition in vivo at 200 mg/kg,[5],30%
